From PubChem BioAssay AID652060 (Broad Institute, 2013)
Activity calls are given as the source filed them. The rule behind the calls is not given here.

Columns and labels:
[1] = system: D54 LucT luciferase counterscreen, luminescence, 24 h; experiment: nonspecific luciferase activators in D54 LucT cells, dose response, counter-screen for N-linked glycosylation inhibitor project, cell-based, luminescence, dry powder (AID 652060)
[2] = as above; conditions: D54 LucT luciferase counterscreen, luminescence, 24 h; at 19.5 µM (top of the series)

SMILES	AC40 [1]	luciferase activity increase [2]
COc1ccccc1-c1nnc(SCc2ccccc2)o1	0.632 µM	–
COc1ccccc1CSc1nnc(-c2ccccc2)o1	0.845 µM	–
COC(=O)c1cn(C(=O)c2ccc(OC)cc2)c2ccccc12	15.4 µM	–
O=C1CCN(Cc2ccccc2)c2cc3ccccc3cc21	–	0% (inactive)
Cc1[nH][nH]c(=O)c1C(c1ccc(-c2ccc(Cl)c(Cl)c2)o1)c1c(C)[nH][nH]c1=O	–	0% (inactive)
C/C(=N\NC(=O)c1c([N+](=O)[O-])c(C)nn1C)c1ccc(NC(=O)C2CCCC2)cc1	–	0% (inactive)
Cc1ccc(C(=O)c2cc([N+](=O)[O-])ccc2N2CCOCC2)cc1C	–	66.7% (inactive)
O=C(N/N=C/c1ccc(Cl)cc1)c1sccc1OCc1ccc(F)cc1	1.6 µM	–
Cc1cc(=O)[nH]c(N/N=C/c2cc(C)n(CC(F)(F)F)c2C)n1	–	0% (inactive)
COc1ccc2c(COC(=O)c3cccc(S(=O)(=O)NCC(C)C)c3)cc(=O)oc2c1	–	66.7% (inactive)
Cc1cc(C)cc(C(=O)N2CC(=O)Nc3ccccc32)c1	–	33.3% (inactive)
Cc1cnc(NC(=O)c2cc(S(=O)(=O)N(C)C)ccc2N2CCCC2)s1	–	0% (inactive)
CCOc1ccc(NC(=O)c2cc(OC)nc3ccccc23)cc1	–	0% (inactive)
Cc1cc(C)nc(/N=C(\N)Nc2ccc(OCc3ccccc3)cc2)n1	–	-33.3% (inactive)
Cc1cc(NC(=O)CSc2nc(-c3ccco3)cc(C(F)(F)F)n2)no1	–	0% (inactive)
CCn1c2ccccc2c2cc(NC(=O)c3cc(OC)c(OC)c(OC)c3)ccc21	–	-33.3% (inactive)
COc1ccc(-c2nnc(SCc3ccccc3)o2)cc1	5.12 µM	–
Cc1ccc(CCC(=O)Nc2ncc(Cc3cc(Cl)ccc3Cl)s2)o1	–	-33.3% (inactive)
CC(=O)c1cccc(NC(=O)CSc2ncc(C(=O)Nc3ccccc3)c(=O)n2C)c1	–	33.3% (inactive)
Cc1ccc(Oc2ccc(S(=O)(=O)N3CCOCC3)cc2C(N)=O)c(-n2nc3ccccc3n2)c1	–	33.3% (inactive)
CCN(CC)CCC(=O)Nc1cccc2c1C(=O)c1ccccc1C2=O	–	-33.3% (inactive)
CCOC(=O)COc1cccc2c(=O)n(CC(=O)NCc3ccccc3)ccc12	–	0% (inactive)
Brc1ccc(CSc2nnc(-c3ccccc3)o2)cc1	–	0% (inactive)

SMILES	AC40 [1]	luciferase activity increase [2]
O=C(Cc1ccccc1)c1nnc(-c2ccccc2)o1	–	33.3% (inactive)
COc1cc(C(=O)NCCOc2cc(C)cc(C)c2)cc(OC)c1OC	–	33.3% (inactive)
COc1cccc(N2CCN(C(=O)c3ccc(CS(=O)c4ccc(C)cc4)o3)CC2)c1 (stereo unspecified)	–	0% (inactive)
CCOC(=O)c1ccc(Oc2cc(C)nc(SC)n2)cc1	3.39 µM	–
CC(=O)N[C@H]1[C@@H](O[C@@H]2OC(C[C@@H](O)C3O[C@@H](n4ccc(=O)[nH]c4=O)[C@H](O)[C@@H]3O)[C@H](O)[C@H](O)[C@H]2NC(=O)/C=C/CCCCCCCCCCC(C)C)O[C@H](CO)[C@@H](O)[C@@H]1O (stereo partly specified)	–	-50% (inactive)
COc1ccc(NC(=O)C(=O)c2cn(CC(=O)N3CCCC3)c3ccccc23)cc1	–	-33.3% (inactive)
CCOc1ccc(S(=O)(=O)NCc2ccccn2)cc1NC(=O)c1ccccc1F	–	0% (inactive)
COc1ccccc1OCC(=O)NNC(=O)c1ccoc1C	–	33.3% (inactive)
CCCOC(=O)c1[nH]c2c(c1C)C(=O)CC(c1cccs1)C2 (stereo unspecified)	–	50% (inactive)
CCCCOc1ccccc1C1CC(=O)NC2=C1C(=O)CCC2 (stereo unspecified)	–	0% (inactive)
CCCNS(=O)(=O)c1cccc(C(=O)OCc2cc(=O)oc3cc(OC)ccc23)c1	2.14 µM	–
COc1cc(Nc2c3c(nc4ccccc24)CCCC3)cc(OC)c1OC	–	0% (inactive)
CCN(CC)CCOc1ccc2c(c1)C(=NNC(=O)c1ccccn1)c1cc(OCCN(CC)CC)ccc1-2	–	-33.3% (inactive)
CC(=O)c1ccc(Oc2cc(C)nc(-n3nc(C)cc3C)n2)cc1	–	0% (inactive)
CC(=O)N1CCC(=O)c2cc3ccccc3cc21	–	33.3% (inactive)
CCC1=Nc2cc(C(=O)NCCCOC)ccc2Sc2ccccc21	–	-33.3% (inactive)
Nc1nc(=S)c2ncn([C@@H]3O[C@H](CO)[C@@H](O)[C@H]3O)c2[nH]1	5.19 µM	–
O=C1CCNc2cc3ccccc3cc21	–	-66.7% (inactive)
COc1ccc(CSc2nnc(-c3ccccc3)o2)cc1	–	50% (inactive)
Cc1cccc(C)c1OCCNC(=O)C(=O)NCc1ccco1	–	33.3% (inactive)
Cc1ccc(/C=N/NC(=O)C2COc3ccccc3O2)s1 (stereo unspecified)	15.3 µM	–
COc1cc(-c2nnc(SCC3(c4ccc(Br)cc4)OCCO3)o2)cc(OC)c1OC	0.93 µM	–
CCN(CC)CCCNc1nc2cc(OC)c(OC)cc2c2nc(-c3ccccc3)nn12	–	-33.3% (inactive)
